Assay results as given in patent publication US20260001914A1, “MACROCYCLIC PEPTIDES TARGETING KRAS” (Merck Sharp & Dohme LLC, priority 2022, published 2026).
*1 amine or outer side, *2 acyl side, *3 side chain or, on linkers, in order; H or OH if unused. Where a SMILES comes first, the peptide text is derived from it. Bridges are numbered along the chain shown (N, C = ends). [ ]: non-standard residue; d: D form. NMeNva(5-imidazol-1-yl) = CN[C@@H](CCCn1ccnc1)C(=O)O; Ala(pyrimidin-5-yl) = N[C@@H](Cc1cncnc1)C(=O)O; X39 = CN([C@@H](Cc1cccnc1F)C(=O)[*:2])[*:1]; NMePhe(3-F) = CN[C@@H](Cc1cccc(F)c1)C(=O)O; X7 = C[C@H](N[*:1])C12CC(C(=O)[*:2])(C1)C2; X20 = CN([C@@H](Cc1cnco1)C(=O)[*:2])[*:1]; X25 = O=C([C@H](Cc1ccc(F)nc1)N[*:1])[*:2]; X5 = O=C([C@H](Cc1c(F)ccnc1F)N[*:1])[*:2]; X46 = O=C([C@H](Cc1cccnc1F)N[*:1])[*:2]; NMeAha = CN[C@@H](CCN=[N+]=[N-])C(=O)O; X47 = O=C([C@H](Cc1ccoc1)N[*:1])[*:2]; Phe(2-F) = N[C@@H](Cc1ccccc1F)C(=O)O; X31 = O=C([C@H](CCC1CC1)N[*:1])[*:2]; NMe3Pal = CN[C@@H](Cc1cccnc1)C(=O)O; X1 = O=C(C12CC(CN[*:1])(C1)C2)[*:2]; NMeAad = CN[C@@H](CCCC(=O)O)C(=O)O; Aha = [N-]=[N+]=NCC[C@H](N)C(=O)O; Ala(cPr) = N[C@@H](CC1CC1)C(=O)O; NMeF = CN[C@@H](Cc1ccccc1)C(=O)O; PhLac = O=C(O)[C@@H](O)Cc1ccccc1; 3Pal = N[C@@H](Cc1cccnc1)C(=O)O; Ahp(2) = CCCCC[C@H](N)C(=O)O; Cba = N[C@@H](CC1CCC1)C(=O)O; NMeNle = CCCC[C@H](NC)C(=O)O; hLeu = CC(C)CC[C@H](N)C(=O)O; NMeS = CN[C@@H](CO)C(=O)O; αMeC = C[C@](N)(CS)C(=O)O; NMeA = CN[C@@H](C)C(=O)O; Nle = CCCC[C@H](N)C(=O)O

The molecules below were run against phosphorylation levels of ERK1/2 in AsPC-1 (homozygous KRAS-G12D) cells (Homo sapiens, UniProt P01116, G12D) (assay: Cellular phospho-ERK assay in AsPC-1 cells (Alpha Screen), assay medium without fetal bovine serum). Settings: phospho-ERK AlphaScreen, 18 h.
Format: cell-based
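Further: signal taken as phospho-ERK over total ERK per well, both detected in one multiplex bead assay, EC50 from four-parameter logistic fit of dose-response curves.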
Description: Assay plate was incubated at 37° C. 5% CO2 for the indicated length of time. […] Phosphorylated ERK and total ERK levels were detected by Alpha SureFire Ultra Multiplex pERK kit (PerkinElmer MPSU-PTERK) using 5 μL, acceptor bead mix and 5 μL donor bead mix, both prepared following the manufacturer's protocol. Plates were sealed using aluminum sealing tape (Costar 07-200-683) during incubation at ambient temperature with constant shaking at 300 rpm for 1 h (both acceptor and donor). Assay plates were read on a Envision Xcite Multilabel Reader (PerkinElmer 1040900) at ambient temperature, with emission at 535 nm (Total ERK) and emission at 615 nm (Phospho ERK). Ratio of pERK vs total ERK in each well was used as the final readout. Dose response curves and EC50 were analyzed using a 4-parameter logistic equation in GraphPad Prism software.

phosphorylation levels of ERK1/2 in AsPC-1 (homozygous KRAS-G12D) cells, sequence (P01116 1-186 G12D): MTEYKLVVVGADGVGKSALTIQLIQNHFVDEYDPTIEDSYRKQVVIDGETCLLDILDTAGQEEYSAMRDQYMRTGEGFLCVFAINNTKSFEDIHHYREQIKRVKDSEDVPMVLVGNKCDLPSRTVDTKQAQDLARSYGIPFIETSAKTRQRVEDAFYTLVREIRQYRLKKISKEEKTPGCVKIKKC

Row | Compound | EC50
1 | CCCC[C@@H]1NC(=O)[C@H](Cc2cccnc2)NC(=O)[C@H](CCCC(=O)N(C)C)N(C)C(=O)[C@H](Cc2ccccc2)OC(=O)C23CC(CNC(=O)[C@H](Cc4cccnc4)N(C)C(=O)[C@H](CCCC)NC(=O)[C@H](Cc4ccccc4F)NC1=O)(C2)C3 [compound 408, cyclo(FLac-hQdm-3Pal-Nle-Phe2F-Nle-NMe3Pal-amBCP)] (cyclo([3Pal][Nle][Phe(2-F)][Nle][NMe3Pal][X1][PhLac][NMeAad](NMe2))) | > 50.8 µM
2 | CC(C)CC[C@@H]1NC(=O)[C@H](Cc2ccccc2F)NC(=O)[C@H](CC2CC2)NC(=O)[C@H](Cc2cncnc2)NC(=O)[C@H](C)N(C)C(=O)[C@H](Cc2ccccc2)OC(=O)C23CC(CNC(=O)[C@H](Cc4cccnc4F)N(C)C1=O)(C2)C3 [compound 336, cyclo(FLac-NMeA-PyrimAla-cPrA-Phe2F-hL-NMe3Pal2F-amBCP)] (cyclo([Ala(cPr)][Phe(2-F)][hLeu][X39][X1][PhLac][NMeA][Ala(pyrimidin-5-yl)])) | 1.39 µM
3 | CCCC[C@@H]1NC(=O)[C@H](Cc2cncnc2)NC(=O)[C@H](C)N(C)C(=O)[C@H](Cc2ccccc2)OC(=O)C23CC(CNC(=O)[C@H](Cc4ccccc4)N(C)C(=O)[C@H](CCC(C)C)NC(=O)[C@H](Cc4ccccc4F)NC1=O)(C2)C3 [compound 132, cyclo(FLac-NMeA-PyrimAla-Nle-Phe2F-hL-NMeF-amBCP)] (cyclo([NMeA][Ala(pyrimidin-5-yl)][Nle][Phe(2-F)][hLeu][NMeF][X1][PhLac])) | 1.11 µM
4 | CCCC[C@@H]1NC(=O)[C@H](Cc2ccc(F)nc2)NC(=O)[C@H](C)N(C)C(=O)[C@H](Cc2ccccc2)OC(=O)C23CC(CNC(=O)[C@H](Cc4cccnc4)N(C)C(=O)[C@H](CCCC)NC(=O)[C@H](Cc4ccccc4F)NC1=O)(C2)C3 [compound 235, cyclo(FLac-NMeA-4F3Pal-Nle-Phe2F-Nle-NMe3Pal-amBCP)] (cyclo([NMe3Pal][X1][PhLac][NMeA][X25][Nle][Phe(2-F)][Nle])) | 11.8 µM
5 | CCCC[C@@H]1NC(=O)[C@H](Cc2ccccc2F)NC(=O)C(CC2CC(F)(F)C2)NC(=O)[C@H](Cc2cncnc2)NC(=O)[C@H](C)N(C)C(=O)[C@H](Cc2ccccc2)OC(=O)C23CC(CNC(=O)[C@H](Cc4cccnc4)N(C)C1=O)(C2)C3 (single isomer, unassigned) [compound 122, cyclo(FLac-NMeA-PyrimAla-rF2Cba-Phe2F-Nle-NMe3Pal-amBCP)] | > 50.8 µM
6 | CCCCC[C@@H]1NC(=O)[C@H](Cc2ccc(OC)cc2)NC(=O)[C@H](CC2CCC2)NC(=O)[C@H](Cc2ccoc2)NC(=O)[C@H](CCCNC(=N)N)NC(=O)[C@H](Cc2ccccc2)NC(=O)CSC[C@@](C)(C(N)=O)NC(=O)[C@H](Cc2ccccc2)N(C)C1=O [compound 371, cyclo(F-R-Ala3Fur-cBuA-TyrOMe-Ahp-NMeF-aMeCl-ClAc)] | > 50.8 µM
7 | CCCCC[C@@H]1NC(=O)[C@H](Cc2ccc(OC)cc2)NC(=O)[C@H](CC2CCC2)NC(=O)[C@H](Cc2cnn(C)c2)NC(=O)[C@H](CCCNC(=N)N)NC(=O)[C@H](Cc2ccccc2)NC(=O)CSC[C@@](C)(C(N)=O)NC(=O)[C@H](Cc2ccccc2)N(C)C1=O [compound 372, cyclo(F-R-Ala4PyzlMe-cBuA-TyrOMe-Ahp-NMeF-aMeCl-ClAc)] | > 50.8 µM
8 | CCCC[C@@H]1NC(=O)[C@H](Cc2ccccc2F)NC(=O)[C@H](CCN=[N+]=[N-])NC(=O)[C@H](Cc2cccnc2)NC(=O)[C@H](CCCC)N(C)C(=O)[C@H](Cc2ccccc2)OC(=O)C23CC(CNC(=O)[C@H](Cc4cccnc4)N(C)C1=O)(C2)C3 [compound 243, cyclo(FLac-NMeNle-3Pal-DabN3-Phe2F-Nle-NMe3Pal-amBCP)] (cyclo([3Pal][Aha][Phe(2-F)][Nle][NMe3Pal][X1][PhLac][NMeNle])) | 21.7 µM
9 | CCCC[C@@H]1NC(=O)[C@H](Cc2cncnc2)NC(=O)[C@H](C)N(C)C(=O)[C@H](Cc2ccccc2)OC(=O)C23CC(C2)(C3)[C@H](C)NC(=O)[C@H](Cc2cccnc2)N(C)C(=O)[C@H](CCCC)NC(=O)[C@H](Cc2ccccc2F)NC1=O [compound 121, cyclo(FLac-NMeA-PyrimAla-Nle-Phe2F-Nle-NMe3Pal-SMeamBCP)] (cyclo([NMe3Pal][X7][PhLac][NMeA][Ala(pyrimidin-5-yl)][Nle][Phe(2-F)][Nle])) | 23.4 µM
10 | CCCCC[C@@H]1NC(=O)[C@H](Cc2ccc(OC)cc2)NC(=O)[C@H](CC2CCC2)NC(=O)[C@H](Cc2cccnc2)NC(=O)[C@H](CCCNC(=N)N)NC(=O)[C@H](Cc2ccccc2)NC(=O)CSC[C@@](C)(C(N)=O)NC(=O)[C@H](Cc2cnco2)N(C)C1=O [compound 379, cyclo(F-R-3Pal-cBuA-TyrOMe-Ahp-NMeAla5Oxa-aMeCl-ClAc)] ({CH2CO}-FR[3Pal][Cba]Y(Me)[Ahp(2)][X20][αMeC]-NH2; thioether N-8) | > 50.8 µM
11 | CCCC[C@@H]1NC(=O)[C@H](Cc2ccc(C(F)(F)F)nc2)NC(=O)[C@H](CCCn2ccnc2)N(C)C(=O)[C@H](Cc2ccccc2)OC(=O)C23CC(CNC(=O)[C@H](Cc4ccccc4)N(C)C(=O)[C@H](CCCC)NC(=O)[C@H](Cc4ccccc4F)NC1=O)(C2)C3 (single isomer, unassigned) [compound 218, cyclo(FLac-NMeNvalmid-4CF33Pal-Nle-Phe2F-Nle-NMeF-amBCP)] | > 50.8 µM
12 | CCCC[C@@H]1NC(=O)[C@H](Cc2cccnc2F)NC(=O)[C@H](C)N(C)C(=O)[C@H](Cc2ccccc2)OC(=O)C23CC(CNC(=O)[C@H](Cc4cccnc4)N(C)C(=O)[C@H](CCCC)NC(=O)[C@H](Cc4ccccc4F)NC1=O)(C2)C3 [compound 117, cyclo(FLac-NMeA~3Pal2F-Nle-Phe2F-Nle-NMe3Pal-amBCP)] (cyclo([NMe3Pal][X1][PhLac][NMeA][X46][Nle][Phe(2-F)][Nle])) | 50.2 µM
13 | CCCC[C@@H]1NC(=O)[C@H](Cc2cncnc2)NC(=O)[C@H](C)N(C)C(=O)[C@H](Cc2ccccc2)OC(=O)C23CC(CNC(=O)[C@H](Cc4cccc(F)c4)N(C)C(=O)[C@H](CCCC)NC(=O)[C@H](Cc4ccccc4F)NC1=O)(C2)C3 [compound 174, cyclo(FLac-NMeA-PyrimAla-Nle-Phe2F-Nle-NMePhe3F-amBCP)] (cyclo([NMeA][Ala(pyrimidin-5-yl)][Nle][Phe(2-F)][Nle][NMePhe(3-F)][X1][PhLac])) | 0.734 µM
14 | CCCC[C@@H]1NC(=O)[C@H](Cc2cncnc2)NC(=O)[C@H](CCCn2ccnc2)N(C)C(=O)[C@H](Cc2ccccc2)OC(=O)C23CC(CNC(=O)[C@H](Cc4cccnc4)N(C)C(=O)[C@H](CCCC)NC(=O)[C@H](Cc4ccccc4F)NC1=O)(C2)C3 [compound 240, cyclo(FLac-NMeNvalmid-PyrimAla-Nle-Phe2F-Nle-NMe3Pal-amBCP)] (cyclo([NMe3Pal][X1][PhLac][NMeNva(5-imidazol-1-yl)][Ala(pyrimidin-5-yl)][Nle][Phe(2-F)][Nle])) | > 50.8 µM
15 | C[C@H]1C(=O)N[C@@H](Cc2cncnc2)C(=O)N[C@@H](CC2CCC2)C(=O)N[C@@H](Cc2ccccc2F)C(=O)N[C@@H](CCC2CC2)C(=O)N(C)[C@@H](Cc2ccccc2)C(=O)NCC23CC(C2)(C3)C(=O)O[C@@H](Cc2ccccc2)C(=O)N1C [compound 115, cyclo(FLac-NMeA-PyrimAla-cBuA-Phe2F-hcPrA-NMeF-amBCP)] (cyclo([Cba][Phe(2-F)][X31][NMeF][X1][PhLac][NMeA][Ala(pyrimidin-5-yl)])) | 0.437 µM
16 | CCCCC[C@@H]1NC(=O)[C@H](Cc2ccoc2)NC(=O)[C@H](CC2CCC2)NC(=O)[C@H](Cc2cccnc2)NC(=O)[C@H](CCCNC(=N)N)NC(=O)[C@H](Cc2ccccc2)NC(=O)CSC[C@@](C)(C(N)=O)NC(=O)[C@H](Cc2ccccc2)N(C)C1=O [compound 374, cyclo(F-R-3Pal-cBuA-Ala3Fur-Ahp-NMeF-aMeCl-ClAc)] ({CH2CO}-FR[3Pal][Cba][X47][Ahp(2)][NMeF][αMeC]-NH2; thioether N-8) | > 50.8 µM
17 | CCCC[C@@H]1NC(=O)[C@H](Cc2cccnc2)NC(=O)[C@H](C)N(C)C(=O)[C@H](Cc2ccc(F)nc2)NC(=O)C23CC(CNC(=O)[C@H](Cc4cccnc4)N(C)C(=O)[C@H](CCCC)NC(=O)[C@H](Cc4ccccc4F)NC1=O)(C2)C3 [compound 165, cyclo(4F3Pal-NMeA-3Pal-Nle-Phe2F-Nle-NMe3Pal-amBCP)] (cyclo([3Pal][Nle][Phe(2-F)][Nle][NMe3Pal][X1][X25][NMeA])) | > 50.8 µM
18 | CCCC[C@@H]1NC(=O)[C@H](Cc2cncnc2)NC(=O)[C@H](CCN=[N+]=[N-])N(C)C(=O)[C@H](Cc2ccccc2)OC(=O)C23CC(CNC(=O)[C@H](Cc4cccnc4)N(C)C(=O)[C@H](CCCC)NC(=O)[C@H](Cc4ccccc4F)NC1=O)(C2)C3 [compound 242, cyclo(FLac-NMeDabN3-PyrimAla-Nle-Phe2F-Nle-NMe3Pal-amBCP)] (cyclo([NMe3Pal][X1][PhLac][NMeAha][Ala(pyrimidin-5-yl)][Nle][Phe(2-F)][Nle])) | 11.6 µM
19 | CCCC[C@@H]1NC(=O)[C@H](Cc2cccnc2)NC(=O)[C@H](CCCn2ccnc2)N(C)C(=O)[C@H](Cc2ccccc2)OC(=O)C23CC(CNC(=O)[C@H](Cc4ccccc4)N(C)C(=O)[C@H](CCCC)NC(=O)[C@H](Cc4ccccc4F)NC1=O)(C2)C3 [compound 233, cyclo(FLac-NMeNvalmid-3Pal-Nle-Phe2F-Nle-NMeF-amBCP)] (cyclo([3Pal][Nle][Phe(2-F)][Nle][NMeF][X1][PhLac][NMeNva(5-imidazol-1-yl)])) | 5.16 µM
20 | CCCC[C@@H]1NC(=O)[C@H](Cc2cccnc2)NC(=O)[C@H](COC)N(C)C(=O)[C@H](Cc2ccccc2)OC(=O)C23CC(CNC(=O)[C@H](Cc4cccnc4)N(C)C(=O)[C@H](CCCC)NC(=O)[C@H](Cc4ccccc4F)NC1=O)(C2)C3 [compound 255, cyclo(FLac-nMeSMe-3Pal-Nle-Phe2F-Nle-NMe3Pal-amBCP)] (cyclo([3Pal][Nle][Phe(2-F)][Nle][NMe3Pal][X1][PhLac][NMeS](Me))) | > 50.8 µM
21 | CC(C)CC[C@@H]1NC(=O)[C@H](Cc2c(F)ccnc2F)NC(=O)[C@H](CC2CC2)NC(=O)[C@H](Cc2cncnc2)NC(=O)[C@H](C)N(C)C(=O)[C@H](Cc2ccccc2)OC(=O)C23CC(CNC(=O)[C@H](Cc4ccccc4)N(C)C1=O)(C2)C3 [compound 295, cyclo(FLac-NMeA-PyrimAla-cPrA-3Pal26F2-hL-NMeF-amBCP)] (cyclo([Ala(cPr)][X5][hLeu][NMeF][X1][PhLac][NMeA][Ala(pyrimidin-5-yl)])) | 29.6 µM
